According to ChEMBL document CHEMBL3507680, “University of Dundee, Gates Library screen for HepG2 cell viability”:

Assay: Human HepG2 cell viability assay in 384 well format
Format: toxicity, cell-based
Set-up: dose 125 nL, time 70.5 hour; concentration not given beside the values
Details: HepG2 cells, read-out: Inhibition

| Structure (SMILES) | cytotoxicity at 70.5 h [%] |
| --- | --- |
| CCc1ncncc1C(=O)NCCNS(=O)(=O)c1ccc(C)cc1 | -1.77 |
| COC(=O)[C@@H]1Cc2[nH]cnc2CN1Cc1cc2ccccc2o1 | -2.5 |
| CCCS(=O)(=O)c1ncc(CN2CCC(C)CC2)n1CC1CCCO1 (stereo not drawn) | -2.16 |
| Cc1c(C)n2c(SCC(=O)N3CCCCC3)nnc2[nH]c1=O | -8.89 |
| c1ccc(-n2nnnc2NCc2ccc3c(c2)OCO3)cc1 | 4.41 |
| CC(C(=O)N1CCCN(Cc2cscn2)CC1)N1CCOCC1 (stereo not drawn) | -8.05 |
| CCc1ncc(CN(C)C2CCN(C(C)C)CC2)cn1 | 13.4 |
| Cc1cnn(CC2CCCN2C(=O)c2ccc3c(c2)nnn3C)c1 (stereo not drawn) | -6.19 |
| Cc1ccc(NC(=O)NCC(c2cnn(C)c2)N(C)C)c(C)c1 (stereo not drawn) | -11 |
| CCC1CCCN(S(=O)(=O)c2cnn(C)c2)C1 (stereo not drawn) | -0.41 |
| CC(=O)N(C)Cc1ccc(OCc2cccs2)cc1 | -2.58 |
| c1cnc(N2CCC3(COCc4cnc(-c5cccnc5)nc43)C2)nc1 (stereo not drawn) | 19.5 |
| CCOCC(=O)N1C[C@H]2CC[C@@H]1CN(C(=O)c1ccncc1)C2 | -1.67 |
| O=C(c1ccc2[nH]nnc2c1)N1CC[C@H](O)[C@]2(CCCO2)C1 | -4.29 |
| O=C(c1ccc(Cn2cnnn2)cc1)N1CC[C@H](CO)[C@H](O)C1 | -8.21 |
| Cn1ncc(N2CCOCC2)c(Cl)c1=O | -7.54 |
| Cc1ccc(N2CCCN(C(=O)C(C(C)C)n3cncn3)CC2)nn1 (stereo not drawn) | 1.73 |
| CS(=O)(=O)N[C@H]1CCO[C@]2(CCN(CC3CCOCC3)C2)C1 | -11.1 |
| COc1c(CNC2CCCOc3ccccc32)c(C)nn1C (stereo not drawn) | -9.23 |
| O=S1(=O)c2ccccc2C(O)CN1CCO (stereo not drawn) | -5.7 |
| NC(=O)CCCNC(=O)Cc1csc(Cc2ccccn2)n1 | -135 |

| Structure (SMILES) | cytotoxicity at 70.5 h [%] |
| --- | --- |
| COCCC(=O)N1CC[C@@H]2O[C@@H](C)C[C@H]2C1 | -15.5 |
| O=C(NCc1cc[nH]n1)NCC(O)c1ccc(F)cc1 (stereo not drawn) | 6.85 |
| CCNC(=O)c1ccc(NC2CCOC3(CCCCC3)C2)nn1 (stereo not drawn) | 16.8 |
| Cc1noc(C)c1CN1C[C@@H]2COC[C@@H](C(=O)N3CCCCO3)[C@@H]2C1 | -8.21 |
| COCCOc1ccccc1C(=O)N1CCCC(c2cc(C)[nH]n2)C1 (stereo not drawn) | 0.71 |
| Cc1nc(C)c(CNC(=O)N2CCN(c3ccc(Cl)cn3)CC2)s1 | -3.03 |
| Cn1cc(CN2CCCN(C(=O)c3ccc4c(c3)COC4)CC2)cn1 | -4.36 |
| NC(=O)c1ccccc1-n1cc(-c2cccc(C(=O)O)c2)cn1 | -9.16 |
| COCC(O)CNC(=O)Nc1c(F)cc(F)cc1-c1ccccc1 (stereo not drawn) | -11.2 |
| CN(C)C(C(=O)NCC1(O)CCCCC1)c1c(F)cccc1F (stereo not drawn) | -13 |
| CC(C)Oc1cccc(CC(=O)N(CC(N)=O)C2CCCC2)c1 | -6.57 |
| Cc1ccnc(NCCNC(=O)C2CC3(CCNCC3)CN2C)c1 (stereo not drawn) | -3.92 |
| CCOCC1CC2(CCN(Cc3ccccn3)CC2)CO1 (stereo not drawn) | -3.81 |
| CNC(=O)c1noc(CN2CC[C@](C)(O)[C@H](C)C2)n1 | -8.07 |
| CCCS(=O)(=O)N1CCOCC2(CCN(c3ccccn3)C2)C1 (stereo not drawn) | -11.6 |
| Cn1nccc1NC(=O)CN1CCc2sccc2C1 | -11.2 |
| O=C(Nc1ccc(Cl)cc1C(=O)NCCN1CCOCC1)c1ccco1 | -0.882 |
| O=C(CS(=O)(=O)Cc1cccc(Br)c1)Nc1cn[nH]c1 | -2.81 |
| O=C(NS(=O)(=O)c1ccc(F)c(F)c1)c1cscn1 | 17.8 |
| Cc1c[nH]c(C2COCCN2C(=O)c2n[nH]c(=O)c3ccccc23)n1 (stereo not drawn) | -13.4 |
| O=C1CC(c2ccc(C(=O)O)cc2)c2ncn(-c3cccc(Cl)c3)c2N1 (stereo not drawn) | -9.82 |

| Structure (SMILES) | cytotoxicity at 70.5 h [%] |
| --- | --- |
| Cc1cccnc1CNc1cc(N2CCCC2CO)ncn1 (stereo not drawn) | -8.44 |
| O=C(COc1cccc(Cl)c1)N1CCOCC1c1ncon1 (stereo not drawn) | 13.9 |
| NC(=O)c1ccc(N2CCCCC2)c(NC(=O)c2cc(Br)ccc2F)c1 | -5.55 |
| CCC(C(=O)NC(C)(C)C)n1ccc2ncccc2c1=O (stereo not drawn) | -17.5 |
| Cc1ccsc1[C@@H]1CCN(C(=O)Cn2cc3ccccc3n2)C[C@H]1O | 15.1 |
| CCc1cccc(NS(=O)(=O)c2cc(C)c(C(=O)O)s2)c1 | 0.535 |
| Cc1ccc(F)c(-n2nnc(C(=O)O)c2-c2ccncc2)c1 | -5.82 |
| COC(CNC(=O)c1cn(C)nn1)c1ccc(C)s1 (stereo not drawn) | -6.13 |
| COCCN1CC[C@]2(CN(C(=O)c3ccc[nH]3)C[C@H]2C)C1=O | -7.41 |
| CCn1cc(NC(=O)C(C)n2ncc(Cl)c2C)c(C(=O)NCC(C)C)n1 (stereo not drawn) | -3.04 |
| CCCN1Cc2ccccc2NC(=O)C12CCNC2 (stereo not drawn) | -1.87 |
| Cc1noc(C2CCCN(C(=O)c3cccc(Cl)c3)C2)n1 (stereo not drawn) | -0.713 |
| Cc1nc(-c2c(C)noc2C)cc(C2CCN(CC(=O)N(C)C)CC2)n1 | 5.85 |
| CCOc1ccc(CNC(C)c2c(C)nn(C)c2C)cc1 (stereo not drawn) | 20.4 |
| O=C(c1ccc(Br)o1)N1CCCCC1Cn1cccn1 (stereo not drawn) | -10.3 |
| c1ccc(CN2CCc3ncnc(-c4ccsc4)c3CC2)nc1 | -12.4 |
| CCc1cnc(N)nc1NC(C)c1cnn(C)c1 (stereo not drawn) | -5.96 |
| COc1ccc(-c2nnc(C(C)N3CCOC(C)(C)C3)o2)cc1 (stereo not drawn) | -5.79 |
| CC(=O)N1CCCC1C(=O)N1CCC(=Cc2cccc(F)c2)CC1 (stereo not drawn) | -14.8 |
| CN(C)C(=O)C1CSCN1C(=O)CCc1ccco1 (stereo not drawn) | -8.81 |
| CC(C)C(=O)N1CCC2(CCN2CC2CC2)C1 (stereo not drawn) | -4.62 |

| Structure (SMILES) | cytotoxicity at 70.5 h [%] |
| --- | --- |
| C=C(C)COc1cccc(C(=O)NC(C)c2nnn[nH]2)c1 (stereo not drawn) | 18.4 |
| CCOCc1ccccc1NC(=O)NCC(C)(O)c1cccs1 (stereo not drawn) | -1.02 |
| CC(NC(=O)N1CCC1)c1ccc(S(C)(=O)=O)cc1 (stereo not drawn) | -5.1 |
| O=C(NCC1CC1)[C@@H]1CC[C@@H]2[C@@H](CCN2Cc2ccc(F)c(F)c2)O1 | 2.42 |
| Cc1noc2ncnc(N(C)Cc3ccco3)c12 | -16.7 |
| COCc1nc(C(=O)NS(=O)(=O)c2ccc(C)s2)cs1 | -4.27 |
| CCN(Cc1ccncc1)C(=O)C1COc2c(cccc2OC)C1 (stereo not drawn) | 6.05 |
| CNC(=O)NC(=O)CCSCc1cc(F)cc2cccnc12 | -27.1 |
| O=C(NC1CCc2cc(Cl)ccc21)C1CCN(C(=O)C2CC2)CC1 (stereo not drawn) | -4.11 |
| Cn1cc(C(=O)N2CCCC(Cc3cncc4ccccc34)C2)cn1 (stereo not drawn) | -1.78 |
| COC(=O)C1CCN(C(=O)Cn2ccc(-c3ccccc3)n2)CC1 | -10.6 |
| CN1CC=C(c2noc(CCC(=O)N3CCCC3)n2)CC1 | 7.74 |
| Cn1ncc2c1CN(Cc1ccc(F)cc1)CC2COCC1CC1 (stereo not drawn) | 31.5 |
| O=c1[nH]nc2nc(N3CCOCC3)ccn12 | -1 |
| CN(C)CC1(O)CCN(C(=O)Cc2ccc3c(c2)CCC3)C1 (stereo not drawn) | 0.63 |
| COc1ccc(CN2CCN(c3ncc(Cl)cn3)CC2)cc1 | 13.2 |
| COc1ncccc1NC(=O)C1CCN(S(C)(=O)=O)CC1 | -9.19 |
| Fc1ccc(C2CN(CCc3ccncc3)CCO2)cc1 (stereo not drawn) | 14.4 |
| COc1c(Cl)cccc1NCc1csc(NC(C)=O)n1 | 3.58 |
| COc1cc(CNCc2c(C(C)C)nn(C)c2N(C)C)ccn1 | -5.93 |
